Measured values published in ChEMBL document CHEMBL4602703, “Lead Optimization of a Pyrrole-Based Dihydroorotate Dehydrogenase Inhibitor Series for the Treatment of Malaria” (J Med Chem, 2020).
Converted amounts (≈) assume the structure as drawn.

What was measured:
[1] = physchem; settings: octanol/water, pH 7.4
[2] = Intrinsic clearance in human liver microsomes assessed as per mg protein; assay type: ADME, Microsome
[3] = target: T1, Albumin (Homo sapiens, UniProt P02768); test: Binding affinity to albumin (unknown origin) by chromatographic method; assay type: ADME; settings: for fraction unbound: albumin, read-out: PB (converted)
[4] = target: T2, Dihydroorotate dehydrogenase (quinone), mitochondrial (Homo sapiens, UniProt Q02127)
[5] = Intrinsic clearance in mouse liver microsomes assessed as per mg protein; assay type: ADME, Microsome
[6] = target: Dihydroorotate dehydrogenase (quinone), mitochondrial (Rattus norvegicus, UniProt Q63707)
[7] = target: Dihydroorotate dehydrogenase (quinone), mitochondrial (Mus musculus, UniProt O35435)
[8] = system: Plasmodium falciparum; test: microbe, parasite or virus in culture; settings: 3D7, 72 h
[9] = Inhibition of N-terminal His6-tagged Plasmodium falciparum DHODH expressed in Escherichia coli BL21(DE3) cells using L-DHO as substrate by DCIP dye based assay
[10] = target: T2, Dihydroorotate dehydrogenase (quinone), mitochondrial; test: Inhibition of C-terminal His6-tagged human DHODH (30 to 396 residues) expressed in Escherichia coli BL21(DE3) cells using L-DHO as substrate after 20 mins by 2,6-dichloroindophenol reduction based assay
[11] = Inhibition of C-terminal His6-tagged Plasmodium falciparum DHODH expressed in Escherichia coli BL21(DE3) cells using L-DHO as substrate after 20 mins by 2,6-dichloroindophenol reduction based assay
[12] = system: Plasmodium falciparum; test: Antimalarial activity against Plasmodium falciparum 3D70087/N9 infected in NOD-SCID IL2Rgamma null mouse assessed as blood AUC level require to show 90% reduction in parasitemia administered administered once daily for 4 days; assay type: functional, organism-based
[13] = system: Plasmodium falciparum
[14] = fAUC in Plasmodium falciparum 3D70087/N9 infected po dosed NOD-SCID IL2Rgamma null mouse blood administered once daily for 4 days; assay type: ADME, organism-based; settings: in vivo, 96 h
[15] = system: Plasmodium falciparum; test: animal or person; settings: for EC50: 3D70087/N9, 96 h
[16] = target: T3, Voltage-gated inwardly rectifying potassium channel KCNH2 (Homo sapiens, UniProt Q12809); test: Inhibition of human ERG by IonWorks patch clamp electrophysiology assay
[17] = Oral bioavailability in Swiss mouse at 10 mg/kg by LC-MS analysis; assay type: ADME, organism-based; settings: in vivo
[18] = Apparent half life in Swiss mouse at 10 mg/kg, po by LC-MS analysis; assay type: ADME, organism-based; settings: in vivo, read-out: t1/2(app) (converted)
[19] = in vivo; settings: Sprague-Dawley, rat, po
[20] = AUC (0 to infinity) in Swiss mouse at 10 mg/kg, po by LC-MS analysis; assay type: ADME, organism-based; set-up: dose 10 mg/kg, route oral, time infinity; settings: in vivo
[21] = simulated gi fluid, pH 5.8
[22] = Cmax in Swiss mouse at 10 mg/kg, po by LC-MS analysis; assay type: ADME, organism-based; set-up: dose 10 mg/kg, route oral; settings: in vivo
[23] = Inhibition of yeast DHODH transformed in Plasmodium falciparum D10 in presence of 10 uM proguanil; set-up: species or system Saccharomyces cerevisiae
[24] = system: Plasmodium falciparum; test: Antimalarial activity against Plasmodium falciparum R1AC1B harboring DHODH C276F mutant measured after 72 hrs by SYBR Green dye based fluorescence assay; assay type: functional, organism-based
[25] = system: Plasmodium falciparum; assay type: functional, organism-based; settings: R2B, 72 h
[26] = Protein binding in rat plasma by LC-MS analysis based ultracentrifugation assay; assay type: ADME, cell-free; settings: read-out: PPB (converted)
[27] = system: Plasmodium falciparum; test: Antimalarial activity against Plasmodium falciparum R1BC1A harboring DHODH L531F mutant measured after 72 hrs by SYBR Green dye based fluorescence assay; assay type: functional, organism-based
[28] = system: Plasmodium falciparum; test: Antimalarial activity against Plasmodium falciparum 3D70087/N9 infected in po dosed NOD-SCID IL2Rgamma null mouse administered BID for 4 days by flow cytometric analysis; assay type: functional; settings: 3D70087/N9, po, 96 h
[29] = physchem; settings: PBS, pH 7.4
[30] = Protein binding in DMEM medium containing 10% fetal calf serum by LC-MS analysis based ultracentrifugation assay; assay type: ADME, cell-free, Bos taurus; settings: cattle, serum
[31] = physchem; settings: fasted state simulated gastric fluid, pH 1.6
[32] = Clearance in Sprague-Dawley rat plasma at […], iv by LC-MS analysis; assay type: ADME, organism-based; settings: in vivo
[33] = Protein binding in human liver microsomes by LC-MS analysis based ultracentrifugation assay; assay type: ADME, Microsome; settings: read-out: PB (converted)
[34] = target: T3, Voltage-gated inwardly rectifying potassium channel KCNH2; test: Inhibition of human ERG by patch clamp assay
[35] = target: T1, Albumin; test: Binding affinity to albumin (unknown origin) in ALBUMAX medium; assay type: ADME; settings: read-out: PB (converted)
[36] = system: HepG2; test: Cytotoxicity against human HepG2 cells assessed as reduction in cell viability; assay type: cell-based
[37] = physchem; settings: fasted state simulated intestinal fluid, pH 6.5
[38] = system: Plasmodium falciparum; assay type: functional, organism-based; settings: R10C1B, 72 h
[39] = in vivo; settings: Swiss, mouse, po, 10 mg/kg
[40] = system: L1210; test: Cytotoxicity against mouse L1210 cells assessed as reduction in cell viability; assay type: cell-based
[41] = system: Plasmodium falciparum; test: microbe, parasite or virus in culture; settings: 1D3, 72 h
[42] = Intrinsic clearance in liver microsomes assessed as per mg protein; settings: read-out: CLH
[43] = Cmax in Sprague-Dawley rat at 18.8 mg/kg, po by LC-MS analysis; assay type: ADME, organism-based; set-up: dose 18.8 mg/kg, route oral; settings: in vivo

Dihydroorotate dehydrogenase (quinone), mitochondrial (Rattus norvegicus, UniProt Q63707), sequence (Q63707 whole entry): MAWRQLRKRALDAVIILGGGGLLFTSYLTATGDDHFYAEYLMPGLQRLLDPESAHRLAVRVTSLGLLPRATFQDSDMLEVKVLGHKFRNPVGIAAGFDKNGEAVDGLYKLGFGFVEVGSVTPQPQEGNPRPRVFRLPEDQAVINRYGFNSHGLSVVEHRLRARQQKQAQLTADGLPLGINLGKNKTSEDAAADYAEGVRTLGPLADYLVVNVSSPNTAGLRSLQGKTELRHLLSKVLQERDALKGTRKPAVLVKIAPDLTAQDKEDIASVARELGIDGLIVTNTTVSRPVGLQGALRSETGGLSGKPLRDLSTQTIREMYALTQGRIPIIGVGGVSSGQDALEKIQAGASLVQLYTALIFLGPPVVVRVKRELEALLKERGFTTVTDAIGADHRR
T2 sequence (Q02127 whole entry): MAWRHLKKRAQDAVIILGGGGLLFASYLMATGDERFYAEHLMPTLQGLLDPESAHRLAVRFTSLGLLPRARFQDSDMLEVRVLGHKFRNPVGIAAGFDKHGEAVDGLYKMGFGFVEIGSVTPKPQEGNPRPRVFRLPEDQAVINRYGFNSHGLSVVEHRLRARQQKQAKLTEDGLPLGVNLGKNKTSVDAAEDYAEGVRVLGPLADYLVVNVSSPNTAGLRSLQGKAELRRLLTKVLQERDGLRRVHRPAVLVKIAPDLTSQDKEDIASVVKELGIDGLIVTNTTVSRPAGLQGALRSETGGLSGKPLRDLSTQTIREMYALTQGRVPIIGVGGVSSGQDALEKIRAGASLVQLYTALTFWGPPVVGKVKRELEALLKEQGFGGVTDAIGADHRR
Dihydroorotate dehydrogenase (quinone), mitochondrial (Mus musculus, UniProt O35435), sequence (O35435 whole entry): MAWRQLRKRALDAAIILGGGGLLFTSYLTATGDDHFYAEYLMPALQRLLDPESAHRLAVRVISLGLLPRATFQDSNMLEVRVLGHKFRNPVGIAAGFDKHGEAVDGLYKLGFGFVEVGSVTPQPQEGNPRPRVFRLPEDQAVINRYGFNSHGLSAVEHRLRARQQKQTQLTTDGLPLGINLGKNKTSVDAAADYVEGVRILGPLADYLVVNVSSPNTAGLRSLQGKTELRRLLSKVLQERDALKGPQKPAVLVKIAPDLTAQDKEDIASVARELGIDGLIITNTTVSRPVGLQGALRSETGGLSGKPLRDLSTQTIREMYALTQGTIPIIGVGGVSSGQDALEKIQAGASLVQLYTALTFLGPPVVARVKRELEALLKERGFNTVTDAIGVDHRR
T1 sequence (P02768 whole entry): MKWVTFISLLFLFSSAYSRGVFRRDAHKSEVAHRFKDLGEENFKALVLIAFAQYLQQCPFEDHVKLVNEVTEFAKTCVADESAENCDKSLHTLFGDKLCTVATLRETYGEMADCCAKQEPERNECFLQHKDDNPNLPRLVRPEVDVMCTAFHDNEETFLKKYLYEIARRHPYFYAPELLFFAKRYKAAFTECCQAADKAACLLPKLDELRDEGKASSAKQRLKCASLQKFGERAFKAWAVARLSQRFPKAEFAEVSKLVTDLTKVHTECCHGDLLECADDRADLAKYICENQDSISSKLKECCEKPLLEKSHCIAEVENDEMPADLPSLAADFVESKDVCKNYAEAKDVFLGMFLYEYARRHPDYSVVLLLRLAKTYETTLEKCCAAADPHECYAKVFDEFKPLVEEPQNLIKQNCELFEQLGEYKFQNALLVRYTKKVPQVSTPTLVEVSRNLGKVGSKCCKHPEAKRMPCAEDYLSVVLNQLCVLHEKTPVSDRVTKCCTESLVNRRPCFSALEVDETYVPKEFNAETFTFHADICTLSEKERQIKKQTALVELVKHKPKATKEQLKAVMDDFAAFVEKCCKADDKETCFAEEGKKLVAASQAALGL
T3 sequence (Q12809 whole entry): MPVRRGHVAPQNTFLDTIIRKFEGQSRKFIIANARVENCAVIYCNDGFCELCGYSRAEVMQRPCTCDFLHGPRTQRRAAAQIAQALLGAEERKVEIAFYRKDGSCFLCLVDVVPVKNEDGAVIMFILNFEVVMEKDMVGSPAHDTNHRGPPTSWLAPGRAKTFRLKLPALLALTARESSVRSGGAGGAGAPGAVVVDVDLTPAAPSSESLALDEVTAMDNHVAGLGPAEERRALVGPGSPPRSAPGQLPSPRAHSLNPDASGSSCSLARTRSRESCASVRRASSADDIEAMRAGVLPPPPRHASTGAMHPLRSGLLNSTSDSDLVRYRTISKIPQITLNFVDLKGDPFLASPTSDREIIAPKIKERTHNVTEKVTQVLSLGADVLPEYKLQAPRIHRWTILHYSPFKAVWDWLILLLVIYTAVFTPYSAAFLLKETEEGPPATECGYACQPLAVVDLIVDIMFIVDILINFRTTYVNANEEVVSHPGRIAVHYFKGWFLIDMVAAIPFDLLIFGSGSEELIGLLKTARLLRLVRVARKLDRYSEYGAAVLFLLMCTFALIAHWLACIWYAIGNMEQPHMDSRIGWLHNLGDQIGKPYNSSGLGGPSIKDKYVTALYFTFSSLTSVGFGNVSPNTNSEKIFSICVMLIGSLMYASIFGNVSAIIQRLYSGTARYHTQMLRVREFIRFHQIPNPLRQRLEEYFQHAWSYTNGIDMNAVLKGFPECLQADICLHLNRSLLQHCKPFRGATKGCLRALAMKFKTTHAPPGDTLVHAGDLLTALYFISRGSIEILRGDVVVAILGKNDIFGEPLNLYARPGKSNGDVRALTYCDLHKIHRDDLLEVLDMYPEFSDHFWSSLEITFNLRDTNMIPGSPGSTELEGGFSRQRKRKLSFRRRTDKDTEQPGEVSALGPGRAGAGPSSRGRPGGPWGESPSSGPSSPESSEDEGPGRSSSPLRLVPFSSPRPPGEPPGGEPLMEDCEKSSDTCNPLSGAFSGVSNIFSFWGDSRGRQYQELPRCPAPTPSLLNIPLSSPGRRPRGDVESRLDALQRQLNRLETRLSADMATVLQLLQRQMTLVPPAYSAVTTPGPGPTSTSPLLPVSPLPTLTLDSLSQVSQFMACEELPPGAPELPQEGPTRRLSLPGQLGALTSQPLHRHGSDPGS

CCOC(=O)c1[nH]c(C)c(Cc2ccc(C(F)(F)F)nc2)c1C showed a logD [1] of 3.7, a microsomal CLint [2] of 286 µL/min/mg and a fraction unbound [3] of 0.064. For the same compound, the IC50 [4] was > 100000 nM, the microsomal CLint ([5]; microsomes) was 779 µL/min/mg and the IC50 [6] was > 100000 nM. The IC50 [7] was > 100000 nM and the EC50 [8] was 9.2 nM.

In the case of Cc1c(Cc2ccc(C(F)(F)F)nc2)c[nH]c1C(=O)N1CC(F)(F)C1, the logD [1] is reported as 3.3, the microsomal CLint [2] is reported as 21 µL/min/mg and the IC50 [9] is reported as 33 nM. For the same compound, the fraction unbound [3] was 0.251, the IC50 [4] was > 100000 nM and the microsomal CLint ([5]; microsomes) was 94 µL/min/mg. For the same compound, the IC50 [6] was > 100000 nM, the IC50 [7] was > 100000 nM and the EC50 [8] was 29 nM.

For Cc1nc2cc(OC(F)(F)F)ccc2n1-c1ccc(C(=O)NC2CC2)s1, the IC50 [10] was > 30000 nM, the EC50 [8] was 7 nM and the IC50 [11] was 22 nM.

Work on Cc1c(Cc2ccc(C(F)(F)F)cc2)c[nH]c1C(=O)NC1CC1 yielded a logD [1] of 3.7, a microsomal CLint [2] of 19 µL/min/mg and an IC50 [9] of 48 nM. The fraction unbound [3] was 0.029, the IC50 [4] was > 100000 nM and the microsomal CLint ([5]; microsomes) was 173 µL/min/mg. It also gave an EC50 [8] of 18 nM.

In the case of CCOC(=O)c1[nH]c(C)c(Cc2ccc(OC)cc2)c1C, the IC50 [9] is reported as 520 nM, the IC50 [4] is reported as > 100000 nM and the IC50 [6] is reported as > 100000 nM. For the same compound, the IC50 [7] was > 100000 nM and the EC50 [8] was 590 nM.

Work on Cc1cc(Nc2ccc(C(F)(F)F)nc2)n2nc(C(C)(F)F)nc2n1 yielded an AUCED90 [12] of 12.9 µg·h/mL, a fEC50 [13] of 0.007 µM and a fAUC [14] of 250 ng·h/mL. For the same compound, the EC50 [15] was 14 nM and the ED90 ([15]; 3D70087/N9, in Mus musculus, po, 96 h) was 2.6 mg/kg/day.

For CCNC(=O)c1[nH]c(C)c(Cc2ccc(C(F)(F)F)nc2)c1C, the logD [1] was 2.8, the microsomal CLint [2] was 70 µL/min/mg and the IC50 [9] was 54 nM. For the same compound, the fraction unbound [3] was 0.229, the IC50 [4] was > 100000 nM and the microsomal CLint ([5]; microsomes) was 54 µL/min/mg. For the same compound, the EC50 [8] was 33 nM.

With CCOC(=O)c1[nH]c(C)c(Cc2ccc(C(F)(F)F)cc2)c1C the IC50 [4] was > 100000 nM, the IC50 [6] was > 100000 nM and the IC50 [7] was > 100000 nM. It also gave an EC50 [8] of 61 to 71 nM.

Work on Cc1[nH]c(C(=O)NC2CC2)cc1Cc1ccc(C(F)(F)F)nc1 yielded a logD [1] of 2.8, a microsomal CLint [2] of 36 µL/min/mg and an IC50 [9] of 10000 nM. The fraction unbound [3] was 0.274, the IC50 [4] was > 100000 nM and the microsomal CLint ([5]; microsomes) was 41 µL/min/mg. It also gave an EC50 [8] of 3600 nM.

With Cc1cc(Nc2ccc(S(F)(F)(F)(F)F)cc2)n2nc(C(C)(F)F)nc2n1 [DSM-265] the EC50 [16] was 7000 nM, the bioavailability [17] was 61% and the half-life [18] was 2.4 h. For the same compound, the Tmax [19] was 3.3 h, the AUC(0-inf) [20] was 29.7 µM·h and the solubility [21] was 27.6 µg/mL (≈ 66.5 µM). The fEC50 [13] was 0.001 µM, the Cmax [22] was 3.94 µM and the EC50 [23] was > 20000 nM. The microsomal CLint [2] was < 7 µL/min/mg, the EC50 [24] was 170 nM and the EC50 [25] was 74 to 150 nM. The fraction unbound [26] was 0.03, the EC50 [27] was 80 to 110 nM and the ED90 [28] was 3 mg/kg/day. For the same compound, the solubility [29] was 2 µg/mL (≈ 4.82 µM), the IC50 [9] was 30 nM and the PB ([3]; isolated protein) was 97.4%. For the same compound, the PB [30] was 78.5%, the solubility [31] was 6.8 µg/mL (≈ 16.4 µM) and the fAUC [14] was 15 to 23 ng·h/mL. The EC50 [15] was 6 nM, the clearance [32] was 6.5 mL/min/kg and the fraction unbound [33] was 0.283. For the same compound, the EC50 [34] was 1600 nM, the fraction unbound [35] was 0.169 and the CC50 [36] was > 50000 nM. It also gave a microsomal CLint ([5]; liver microsomes, read-out: CLH) of 7 to 8 µL/min/mg, a solubility [37] of 5.1 µg/mL (≈ 12.3 µM) and an EC50 [38] of 120 to 150 nM. The EC50 [8] was 6 nM, the Tmax [39] was 1 to 2 h and the CC50 [40] was > 50000 nM. For the same compound, the EC50 [41] was 23 nM, the microsomal CLint [42] was < 7 µL/min/mg and the Cmax [43] was 3.95 µM.
